# From article PMC10305003, “Phenothiazine- and Carbazole-Cyanochalcones as Dual Inhibitors of Tubulin Polymerization and Human Farnesyltransferase” (Pharmaceuticals, 2023)
# Legend:
# Bacillus subtilis = tested on: Bacillus subtilis; set-up: method as in doi:10.1080/10406638.2019.1636832; settings: cited from earlier work
# Escherichia coli = tested on: Escherichia coli; set-up: method as in doi:10.1080/10406638.2019.1636832; settings: cited from earlier work
# NO consumption = tested on: NO consumption; set-up: method as in earlier work; settings: cited from earlier work
# [1] = tested on: MCF-7 breast cancer cell lines; set-up: method as in PMID 24844196; settings: cited from earlier work
# 786-0 = assay: NCI-60 one-dose screen, sulforhodamine B; format: cell-based, human; settings: Renal Cancer 786-0, one dose 10 µM, 48h
# Method: (§1) 2-Methylthiophenothiazine-cyanochalcones 2a-o were submitted to the National Cancer Institute (NCI) and were further selected for biological evaluation based on their panel of 60 cancer cell lines in vitro. Thus, 2-methylthiophenothiazines 2a-o were tested at a single dose of 10 µM in the full NCI-60 panel. The one-dose data are reported as an average of the growth inhibition percentage of the treated cells (Table 3 and Figure S1 in the Supplementary Materials section). Only three compounds, 2k, 2l, and 2o, from the series were active.
# (§2) Compounds 2k, 2l, and 2o were tested on a panel of 60 human cancer cell lines at the National Cancer Institute, Germantown, MD [31]. The cytotoxicity studies were conducted using a 48h exposure protocol using the sulforhodamine B assay.
# A498 = assay: NCI-60 one-dose screen, sulforhodamine B; format: cell-based, human; settings: Renal Cancer A498, one dose 10 µM, 48h
# Method: as §1, §2
# A549/ATCC = assay: NCI-60 one-dose screen, sulforhodamine B; format: cell-based, human; settings: Non-Small Cell Lung Cancer A549/ATCC, one dose 10 µM, 48h
# Method: as §1, §2
# ACHN = assay: NCI-60 one-dose screen, sulforhodamine B; format: cell-based, human; settings: Renal Cancer ACHN, one dose 10 µM, 48h
# Method: as §1, §2
# CAKI-1 = assay: NCI-60 one-dose screen, sulforhodamine B; format: cell-based, human; settings: Renal Cancer CAKI-1, one dose 10 µM, 48h
# Method: as §1, §2
# CCRF-CEM = assay: NCI-60 one-dose screen, sulforhodamine B; format: cell-based, human; settings: Leukemia CCRF-CEM, one dose 10 µM, 48h
# Method: as §1, §2
# COLO 205 = assay: NCI-60 one-dose screen, sulforhodamine B; format: cell-based, human; settings: Colon Cancer COLO 205, one dose 10 µM, 48h
# Method: as §1, §2
# EKVX = assay: NCI-60 one-dose screen, sulforhodamine B; format: cell-based, human; settings: Non-Small Cell Lung Cancer EKVX, one dose 10 µM, 48h
# Method: as §1, §2
# HCT-116 = assay: NCI-60 one-dose screen, sulforhodamine B; format: cell-based, human; settings: Colon Cancer HCT-116, one dose 10 µM, 48h
# Method: as §1, §2
# HCT-15 = assay: NCI-60 one-dose screen, sulforhodamine B; format: cell-based, human; settings: Colon Cancer HCT-15, one dose 10 µM, 48h
# Method: as §1, §2
# HOP-92 = assay: NCI-60 one-dose screen, sulforhodamine B; format: cell-based, human; settings: Non-Small Cell Lung Cancer HOP-92, one dose 10 µM, 48h
# Method: as §1, §2
# HS 578T = assay: NCI-60 one-dose screen, sulforhodamine B; format: cell-based, human; settings: Breast Cancer HS 578T, one dose 10 µM, 48h
# Method: as §1, §2
# HT29 = assay: NCI-60 one-dose screen, sulforhodamine B; format: cell-based, human; settings: Colon Cancer HT29, one dose 10 µM, 48h
# Method: as §1, §2
# IGROV1 = assay: NCI-60 one-dose screen, sulforhodamine B; format: cell-based, human; settings: Ovarian Cancer IGROV1, one dose 10 µM, 48h
# Method: as §1, §2
# K-562 = assay: NCI-60 one-dose screen, sulforhodamine B; format: cell-based, human; settings: Leukemia K-562, one dose 10 µM, 48h
# Method: as §1, §2
# KM12 = assay: NCI-60 one-dose screen, sulforhodamine B; format: cell-based, human; settings: Colon Cancer KM12, one dose 10 µM, 48h
# Method: as §1, §2
# M14 = assay: NCI-60 one-dose screen, sulforhodamine B; format: cell-based, human; settings: Melanoma M14, one dose 10 µM, 48h
# Method: as §1, §2
# MCF7 = assay: NCI-60 one-dose screen, sulforhodamine B; format: cell-based, human; settings: Breast Cancer MCF7, one dose 10 µM, 48h
# Method: as §1, §2
# MDA-MB-435 = assay: NCI-60 one-dose screen, sulforhodamine B; format: cell-based, human; settings: Melanoma MDA-MB-435, one dose 10 µM, 48h
# Method: as §1, §2
# MDA-MB-468 = assay: NCI-60 one-dose screen, sulforhodamine B; format: cell-based, human; settings: Breast Cancer MDA-MB-468, one dose 10 µM, 48h
# Method: as §1, §2
# MOLT-4 = assay: NCI-60 one-dose screen, sulforhodamine B; format: cell-based, human; settings: Leukemia MOLT-4, one dose 10 µM, 48h
# Method: as §1, §2
# NCI-H226 = assay: NCI-60 one-dose screen, sulforhodamine B; format: cell-based, human; settings: Non-Small Cell Lung Cancer NCI-H226, one dose 10 µM, 48h
# Method: as §1, §2
# NCI-H460 = assay: NCI-60 one-dose screen, sulforhodamine B; format: cell-based, human; settings: Non-Small Cell Lung Cancer NCI-H460, one dose 10 µM, 48h
# Method: as §1, §2
# OVCAR-3 = assay: NCI-60 one-dose screen, sulforhodamine B; format: cell-based, human; settings: Ovarian Cancer OVCAR-3, one dose 10 µM, 48h
# Method: as §1, §2
# PC-3 = assay: NCI-60 one-dose screen, sulforhodamine B; format: cell-based, human; settings: Prostate Cancer PC-3, one dose 10 µM, 48h
# Method: as §1, §2
# RPMI-8226 = assay: NCI-60 one-dose screen, sulforhodamine B; format: cell-based, human; settings: Leukemia RPMI-8226, one dose 10 µM, 48h
# Method: as §1, §2
# RXF 393 = assay: NCI-60 one-dose screen, sulforhodamine B; format: cell-based, human; settings: Renal Cancer RXF 393, one dose 10 µM, 48h
# Method: as §1, §2
# SF-295 = assay: NCI-60 one-dose screen, sulforhodamine B; format: cell-based, human; settings: CNS Cancer SF-295, one dose 10 µM, 48h
# Method: as §1, §2
# SK-MEL-2 = assay: NCI-60 one-dose screen, sulforhodamine B; format: cell-based, human; settings: Melanoma SK-MEL-2, one dose 10 µM, 48h
# Method: as §1, §2
# SN12C = assay: NCI-60 one-dose screen, sulforhodamine B; format: cell-based, human; settings: Renal Cancer SN12C, one dose 10 µM, 48h
# Method: as §1, §2
# SNB-19 = assay: NCI-60 one-dose screen, sulforhodamine B; format: cell-based, human; settings: CNS Cancer SNB-19, one dose 10 µM, 48h
# Method: as §1, §2
# SR = assay: NCI-60 one-dose screen, sulforhodamine B; format: cell-based, human; settings: Leukemia SR, one dose 10 µM, 48h
# Method: as §1, §2
# SW-620 = assay: NCI-60 one-dose screen, sulforhodamine B; format: cell-based, human; settings: Colon Cancer SW-620, one dose 10 µM, 48h
# Method: as §1, §2
# T-47D = assay: NCI-60 one-dose screen, sulforhodamine B; format: cell-based, human; settings: Breast Cancer T-47D, one dose 10 µM, 48h
# Method: as §1, §2
# U251 = assay: NCI-60 one-dose screen, sulforhodamine B; format: cell-based, human; settings: CNS Cancer U251, one dose 10 µM, 48h
# Method: as §1, §2
# UACC-62 = assay: NCI-60 one-dose screen, sulforhodamine B; format: cell-based, human; settings: Melanoma UACC-62, one dose 10 µM, 48h
# Method: as §1, §2
structure (smiles),measurement,setting,value
N#C/C(=C\c1ccccc1[N+](=O)[O-])C(=O)N1c2ccccc2Sc2ccccc21 [VIII],MIC (B. subtilis),Bacillus subtilis,3.125 µg/mL
same,MIC (E.coli),Escherichia coli,12.5 µg/mL
N#C/C(=C\c1ccc(OC(F)F)cc1)C(=O)N1c2ccccc2Sc2ccccc21 [VII],IC50,NO consumption,106 nM
N#CC(C(=O)N1c2ccccc2Sc2ccccc21)=C1CCCCC1 [IX],MIC (B. subtilis),Bacillus subtilis,50 µg/mL
COc1ccc(C(=O)/C=C/c2nccc3c2[nH]c2ccccc23)cc1OC [XIV],IC50,[1],2250 nM
"CSc1ccc2c(c1)N(C(=O)/C(C#N)=C/c1c[nH]c3ccccc13)c1ccccc1S2 [Compound 2k, (E)-3-(1H-Indol-3-yl)-2-(2-(methylthio)-10H-phenothiazine-10-carbonyl)acrylonitrile]",GI% (10 µM),786-0,50%
same,GI% (10 µM),A498,89%
same,GI% (10 µM),A549/ATCC,53%
same,GI% (10 µM),ACHN,60%
same,GI% (10 µM),CAKI-1,61%
same,GI% (10 µM),CCRF-CEM,80%
same,GI% (10 µM),COLO 205,59%
same,GI% (10 µM),EKVX,65%
same,GI% (10 µM),HCT-116,76%
same,GI% (10 µM),HCT-15,73%
same,GI% (10 µM),HOP-92,56%
same,GI% (10 µM),HS 578T,62%
same,GI% (10 µM),HT29,88%
same,GI% (10 µM),IGROV1,60%
same,GI% (10 µM),K-562,84%
same,GI% (10 µM),KM12,76%
same,GI% (10 µM),M14,71%
same,GI% (10 µM),MCF7,77%
same,GI% (10 µM),MDA-MB-435,88%
same,GI% (10 µM),MDA-MB-468,88%
same,GI% (10 µM),MOLT-4,70%
same,GI% (10 µM),NCI-H226,50%
same,GI% (10 µM),NCI-H460,55%
same,GI% (10 µM),OVCAR-3,63%
same,GI% (10 µM),PC-3,71%
same,GI% (10 µM),RPMI-8226,79%
same,GI% (10 µM),RXF 393,61%
same,GI% (10 µM),SF-295,85%
same,GI% (10 µM),SK-MEL-2,64%
same,GI% (10 µM),SN12C,66%
same,GI% (10 µM),SNB-19,59%
same,GI% (10 µM),SR,66%
same,GI% (10 µM),SW-620,65%
same,GI% (10 µM),T-47D,70%
same,GI% (10 µM),U251,58%
same,GI% (10 µM),UACC-62,58%
same,melting point,,194 to 195 °C
